Measurements reported in patent publication US4031218A, “7-(2,3-Dihydroxypropyl-1,3-di-n-propylxanthine and a pharmaceutical composition containing same useful as a bronchial muscle relaxant” (Mallinckrodt, Inc., priority 1976, dated 1977).

Tests used:
[1] = Summary of relative molar activities (means and therapeutic efficacy); settings: for Therapeutic Efficacy: mean bronchodilator (therapeutic) activity divided by mean acute toxic and side effect activity; for Mean acute toxicity and side effect activity (relative molar): mean of acute toxicity and side effect lines of Table I; for Mean acute toxicity and side effect activity (relative molar) / Mean bronchodilator activity (relative molar): relative to theophylline; for Mean bronchodilator activity (relative molar): mean of bronchodilator lines of Table I
Excerpt: ^g - Mean bronchodilator (therapeutic) activity divided by mean acute

[2] = Intravenous emetic study in dogs (ED50); assay type: in vivo, dog; settings: dog, in vivo, iv; read-out: ED50 (median emetic dose), I.V. Dogs
Method: (§1) Twelve adult mongrel dogs of either sex were employed to determine the median emetic dose (ED50) of all five experimental compounds after intravenous administration. […] Onset, frequency, and duration of emetic episodes were also recorded. The dogs were not fasted, were allowed at least 2 days rest between doses, and no animal received the same compound twice in succession. […] ED50 values were calculated according to the method of Litchfield and Wilcoxon (1949).

[3] = system: dogs; assay: Intravenous emetic study in dogs (ED50); assay type: in vivo, dog; settings: for Emetic effect, I.V. Dogs: estimated at HBD; for I.V. Emetic (Dogs), relative molar activity: relative to theophylline, molar basis
Method: as §1

[4] = system: human bronchodilator; assay: Estimated human bronchodilator dose equivalent to recommended theophylline dose; settings: based on recommended theophylline dose and relative bronchodilator activities
Excerpt: Experimental results are summarized in Table I wherein pharmacologic and toxicologic activities relative to that of theophylline are expressed on a molar basis.
^a - Dose: Based on the recommended dose for theophylline and the
relative activities in the bronchodilator experiments.

[5] = system: dogs; assay: Intravenous cardiovascular evaluation in dogs; settings: for CF (coronary flow) change / CO (cardiac output) change / CW (cardiac work) change / HR (heart rate) change / MAP (mean arterial pressure) change / MCF (myocardial contractile force) change / TPR (total peripheral resistance) change / Cardiovascular effects (Mean): i.v. dogs, estimated at HBD; for I.V. Cardiovascular (Dogs), mean relative molar activity: mean for arterial pressure, heart rate, contractile force, cardiac output, stroke volume, cardiac work, TPR, coronary flow and resistance, relative to theophylline; for Cardiovascular effects (Mean): mean of the cardiovascular changes
Method: Intravenous Cardiovascular Evaluation in Dogs
Thirteen adult mongrel dogs of either sex ranging in weight from 16.7 to 25.0 kg were employed to compare the overall intravenous cardiovascular activity of the five experimental compounds.
Dogs were anesthetized with pentobarbital sodium, 30-35 mg/kg i.v., fitted with a cuffed endotracheal tube, and ventilated with a Harvard Animal Respiratory Pump. A femoral vein was cannulated for i.v. drug administration. The left common carotid artery was cannulated and the cannula tip advanced into the aortic arch. A median sternotomy was performed and appropriately sized electromagnetic blood flow transducers (Biotronex) were placed around the ascending aorta and left anterior descending coronary artery. These procedures allowed continuous recording or calculation of the following parameters:
a. Mean Arterial Pressure (MAP); from the aortic cannula.
b. Heart Rate (HR); electronically from pulsatile ascending aortic flow.
c. Cardiac Output (CO); mean ascending aortic flow.
d. Myocardial Contractile Force (MCF); dQ/dt, the first derivative of maximum aortic flow rate, also known as peak aortic flow acceleration.
e. Stroke Volume (SV); quotient of CO/HR.
f. Cardiac Work (CW); product of CO X MAP.
g. Total Peripheral Resistance (TPR); quotient of MAP/CO.
h. Coronary Flow (CF); mean left anterior descending (LAD) coronary flow.
i. Coronary Resistance (CR); quotient of MAP/CF.
Logarithmically increasing doses of the appropriate compound were injected at 20-minute intervals. Responses were measured at 1, 2, 5, 10, 15 and 20 minutes after each dose and the average response during that period was calculated. Theophylline (aminophylline), dyphylline (II), and Compound V were employed in both 20 and 80 mg/ml concentrations in distilled water. Compounds III and IV were used in 10 and 30 mg/ml concentrations respectively.

[6] = system: histamine-induced bronchospasm; assay: Protection against histamine aerosol in guinea pigs (in vivo bronchodilator); parameters: species or system guinea pig; settings: relative to theophylline, molar basis; for Bronchodilator activity, In-Vivo I.P. (G. Pig), relative molar activity: 15-20 min after injection; for Bronchodilator activity, In-Vivo, Oral (G. Pig), relative molar activity: 35-40 min after gavage
Method: With the exception of theophylline, all compounds were administered as the free base dissolved or suspended in appropriate aqueous vehicles. […] Final comparisons were always based on the calculated dose of theophylline. Because of obvious differences in molecular weights, all compounds were compared on a molar basis rather than on absolute weight.
2. Protection Against Histamine Aerosol
Adult Camm English Short Hair male albino guinea pigs (270-600 gm.) were singularly confined in an inverted glass aquarium and continuously exposed to a finely atomized mist of 0.5% histamine diphosphate produced by a Devilbiss No. 40 nebulizer and compressed air at 300 mm. Hg. pressure. The period from the start of aerosolization until the appearance of ultimate collapse or convulsions is defined as the preconvulsive time and is relatively constant in the same animal. Preconvulsive times were determined for each dose of each compound in at least six guinea pigs. Control preconvulsive times were obtained three days prior to and three days following drug administration. Percent protection afforded by each compound was calculated by the formula:
% Protection = (1- C/T) × 100
where C is the average control preconvulsive time and T is the test preconvulsive time after compound administration, both in seconds.
The PD50 of each experimental compound was determined after both intraperitoneal and oral administration. A minimum of 3 dose levels and 6 animals per dose were employed to obtain meaningful dose-response data. Protection was assessed 15-20 minutes after intraperitoneal injection and 35-40 minutes after oral gavage with a flexible plastic tube. Animals were fasted overnight prior to oral dosing. All compounds were administered in aqueous solution in concentrations commensurate to a proper volume dose. Guinea pigs were utilized between 1 and 3 times but no animal received the same compound twice in succession with a minimum of 3 days rest between doses.

[7] = system: dogs; assay: Oral minimum emetic dose in dogs; assay type: in vivo, dog; settings: for Emetic effect, P.O. Dogs: estimated at HBD; for Oral Emetic (Dogs), relative molar activity: relative to theophylline, molar basis
Method: 2. Oral Minimum Emetic Dose
The minimum dose of each compound which causes emesis after oral administration was estimated in a group of five adult mongrel dogs of either sex. Logarithmically increasing or decreasing (depending upon response) doses of each compound were administered orally via a flexible stomach tube. The compounds were dissolved in distilled water in concentrations to allow a constant volume dose of 5 ml/kg. […] Onset, frequency, and duration of emetic episodes as well as signs of CNS stimulation were also recorded.

[8] = Acute toxicity and side effects; settings: compared with theophylline
[9] = system: rats; assay: Acute oral diuretic evaluation in rats; assay type: in vivo, Sprague Dawley rats; settings: relative to theophylline, molar basis
Method: 1. Acute Oral Evaluation in Rats
The oral diuretic effect of each compound was estimated in rats by a modification of the method described by Lipschitz et al. (J. Pharmacol. Exp. Ther. 79:97, 1943). Male Sprague Dawley rats (Carworth) weighing between 153 and 220 gms were fasted overnight. Groups of five animals each were administered three appropriate logarithmically spaced doses of each compound dissolved in saline in a constant volume dose of 25 ml/kg via an oral feeding needle. Controls received the same dose of only saline. The rats were then placed in individual metabolism cages and deprived of food and water for the remainder of the experiment. At the end of six hours, each rat was forced to expel urine in the bladder by pulling on the base of the tail. Parameters measured included urine volume, pH, and sodium and potassium excretion as measured by atomic absorption analysis. Six hour values were averaged for each dose of compound and for controls and were compared accordingly.

[10] = system: dog hind limb; assay: Dog hind limb perfusion preparation (vasodilator); assay type: in vivo; settings: intra-arterial; relative to theophylline, molar basis
Excerpt: 1. Dog Hind Limb Perfusion Preparation
A total of 12 adult mongrel dogs of either sex were used to assess the direct intra-arterial dilating capacity of the five experimental compounds. […] This was accomplished with a Harvard Variable Speed Peristaltic Pump after proximal and distal cannualtion of the femoral artery. Changes in arterial vascular resistance were reflected as changes in perfusion pressure as measured from a T-tube on the distal side of the pump. Mean systemic arterial pressure was also recorded from the contralateral femoral artery. Drug solutions, dissolved in saline, were injected into the arterial blood supply immediately prior to entering the cannulated distal artery. Logarithmically increasing doses were given at 10-minute intervals and responses were recorded.

[11] = prior art statement; cited from earlier work
[12] = system: mice; assay: Voluntary motor activity in mice (CNS stimulation); assay type: in vivo, male albino Swiss mice; settings: for CNS Activity, I.P. Mice / CNS Activity, I.P. Mice, change: estimated at HBD; for I.P. CNS Stimulation (Mice), relative molar activity: relative to theophylline, molar basis; for CNS Activity, I.P. Mice, change: voluntary motor activity
Method: F. Voluntary Motor Activity Studies in Mice In an attempt to quantitatively assess central nervous system activity, each compound was evaluated for its influence on voluntary motor activity in mice according to the method described by Dews (British J. Pharmacol. 8:46, 1953). Three cylindrical actophotometer cages were utilized simultaneously, each with six light beams and six photoelectric cells. Individual digital counters were connected to each activity cage. Male albino Swiss mice with weights ranging between 19 and 24 gm were used throughout. Compounds were dissolved in distilled water and were injected intraperitoneally in logarithmically spaced doses to groups of five mice, three groups per dose level. Control groups received saline.

[13] = Bronchodilator activity; settings: compared with theophylline

SMILES	Therapeutic Efficacy [1]	Mean acute toxicity and side effect activity (relative molar) [1]	Mean bronchodilator activity (relative molar) [1]	ED50 [2] [mg/kg]	Emetic effect, I.V. Dogs [3]	I.V. Emetic (Dogs), relative molar activity [3]	Estimated Human Bronchodilator Dose (HBD), per 70 kg [4] [mg/70 kg]	Estimated Human Bronchodilator Dose (HBD), per kg [4] [mg/kg]	CF (coronary flow) change [5]	CO (cardiac output) change [5]	CW (cardiac work) change [5]	HR (heart rate) change [5]	MAP (mean arterial pressure) change [5]	MCF (myocardial contractile force) change [5]	TPR (total peripheral resistance) change [5]	I.V. Cardiovascular (Dogs), mean relative molar activity [5]	Cardiovascular effects (Mean) [5]	Bronchodilator activity, In-Vivo I.P. (G. Pig), relative molar activity [6]	Bronchodilator activity, In-Vivo, Oral (G. Pig), relative molar activity [6]	MED (minimum emetic dose), P.O. Dogs [7] [mg/kg]	also measured
CCCn1c(=O)c2c(ncn2CCCO)n(CCC)c1=O [IV, 7-(3-hydroxypropyl)-1,3-di-n-propylxanthine]	0.72	2.60	1.87	7.5	Moderate	12.88	347	5.0	+4 %Δ	+2 %Δ	-26 %Δ	+80 ΔBPM	-25 ΔmmHg	+20 %Δ	-5 %Δ	2.02	23	0.94	0.92	33	Emetic effect, P.O. Dogs [7]: None; Oral Emetic (Dogs), relative molar activity [7]: 6.00; Acute toxicity, emetic, cardiovascular, CNS and diuretic effects in words [8]: increased undesirable emetic, cardiovascular and central nervous system (CNS) effects; Oral Diuretic (Rats), relative molar activity [9]: 1.48; Vasodilator, HLPP (Dogs), relative molar activity [10]: 1.06; Side effects / tolerance in words (prior art) [11]: well tolerated; CNS Activity, I.P. Mice [12]: Moderate; I.P. CNS Stimulation (Mice), relative molar activity [12]: 0.48; CNS Activity, I.P. Mice, change [12]: -17 %Δ; Bronchodilator potency in words [13]: more potent bronchodilators than theophylline
CCCn1c(=O)c2c(ncn2CC(C)O)n(CCC)c1=O (stereo not shown) [III, 7-(2-hydroxypropyl) 1,3-di-n-propylxanthine]	0.09	36.55	3.46	0.7	Severe	134.17	99	1.4	+8 %Δ	+10 %Δ	+2 %Δ	+21 ΔBPM	-8 ΔmmHg	+28 %Δ	-15 %Δ	1.16	13	3.26	3.30	0.8	Emetic effect, P.O. Dogs [7]: Severe; Oral Emetic (Dogs), relative molar activity [7]: 251.00; Acute toxicity, emetic, cardiovascular, CNS and diuretic effects in words [8]: increased undesirable emetic, cardiovascular and central nervous system (CNS) effects; Oral Diuretic (Rats), relative molar activity [9]: 7.29; Vasodilator, HLPP (Dogs), relative molar activity [10]: 0.76; Side effects / tolerance in words (prior art) [11]: well tolerated; CNS Activity, I.P. Mice [12]: Severe; I.P. CNS Stimulation (Mice), relative molar activity [12]: 1.73; CNS Activity, I.P. Mice, change [12]: -60 %Δ; Bronchodilator potency in words [13]: more potent bronchodilators than theophylline
CCCn1c(=O)c2c(ncn2CC(O)CO)n(CCC)c1=O (stereo not shown) [Compound V, 7-(2,3-dihydroxypropyl)-1,3-di-n-propylxanthine]	2.51	0.70	1.76	53	None	1.91	299	4.3	+17 %Δ	+6 %Δ	+2 %Δ	+7 ΔBPM	-5 ΔmmHg	+15 %Δ	-9 %Δ	0.91	9	1.56	0.75	442	Emetic effect, P.O. Dogs [7]: None; Oral Emetic (Dogs), relative molar activity [7]: 0.50; Acute toxicity, emetic, cardiovascular, CNS and diuretic effects in words [8]: less active in regard to acute toxicity as well as undesirable cardiovascular, CNS, diuretic and oral emetic effects; Oral Diuretic (Rats), relative molar activity [9]: 1.05; Vasodilator, HLPP (Dogs), relative molar activity [10]: 0.40; CNS Activity, I.P. Mice [12]: None; I.P. CNS Stimulation (Mice), relative molar activity [12]: 0.30; CNS Activity, I.P. Mice, change [12]: -1 %Δ; Bronchodilator potency in words [13]: comparable to theophylline as a bronchodilator
Cn1c(=O)c2c(ncn2CC(O)CO)n(C)c1=O (stereo not shown) [Compound II, 7-(2,3-dihydroxypropyl) 1,3-dimethylxanthine]	2.31	0.26	0.60	900	None	0.09	2353	33.6	+10 %Δ	-15 %Δ	-30 %Δ	+11 ΔBPM	-20 ΔmmHg	-5 %Δ	+3 %Δ	0.36	13	0.12	0.13	> 362	Emetic effect, P.O. Dogs [7]: None; Oral Emetic (Dogs), relative molar activity [7]: < 0.50; Oral Diuretic (Rats), relative molar activity [9]: 0.71; Vasodilator, HLPP (Dogs), relative molar activity [10]: 0.06; Side effects / tolerance in words (prior art) [11]: few of the usual theophylline-like side effects; I.P. CNS Stimulation (Mice), relative molar activity [12]: 0.18
